Values after ≈ are worked out from the molar mass of the structure shown.
Key:
Serratia marcescens [1] = experiment: Antimicrobial activity against cetylpyridinium chloride-sensitive Serratia marcescens 71 by broth dilution method; format: functional
Serratia marcescens [2] = experiment: Antimicrobial activity against cetylpyridinium chloride-sensitive Serratia marcescens 79 by broth dilution method; format: functional
Serratia marcescens [3] = experiment: microbe, parasite or virus in culture; format: functional; details: ATCC 13880
Description: (§1) Antimicrobial activity against Serratia marcescens ATCC 13880 by broth dilution method

Serratia marcescens [4] = experiment: Antimicrobial activity against cetylpyridinium chloride-resistant Serratia marcescens 01 by broth dilution method; format: functional
Serratia marcescens [5] = experiment: Antimicrobial activity against cetylpyridinium chloride-resistant Serratia marcescens 011 harboring plasmid STV28 expressing sdeB gene by broth dilution method; format: functional
Serratia marcescens [6] = experiment: Antimicrobial activity against cetylpyridinium chloride-resistant Serratia marcescens HMS011 harboring plasmid STV28 expressing sdeB gene by broth dilution method; format: functional
Serratia marcescens [7] = experiment: Antimicrobial activity against cetylpyridinium chloride-resistant Serratia marcescens 011 by broth dilution method; format: functional
Serratia marcescens [8] = experiment: Antimicrobial activity against cetylpyridinium chloride-resistant Serratia marcescens 01 harboring plasmid STV29 by broth dilution method; format: functional
Serratia marcescens [9] = experiment: Antimicrobial activity against cetylpyridinium chloride-sensitive Serratia marcescens 79 harboring plasmid STV29 by broth dilution method; format: functional
Serratia marcescens [10] = experiment: Antimicrobial activity against cetylpyridinium chloride-sensitive Serratia marcescens 71 harboring plasmid STV29 expressing hasF gene by broth dilution method; format: functional
Serratia marcescens [11] = experiment: Antimicrobial activity against cetylpyridinium chloride-resistant Serratia marcescens HMS011 by broth dilution method; format: functional
Serratia marcescens [12] = experiment: Antimicrobial activity against Serratia marcescens ATCC 13880 harboring plasmid STV29 by broth dilution method; format: functional
Serratia marcescens [13] = experiment: Antimicrobial activity against cetylpyridinium chloride-sensitive Serratia marcescens 71 harboring plasmid STV29 by broth dilution method; format: functional
Serratia marcescens [14] = experiment: Antimicrobial activity against cetylpyridinium chloride-sensitive Serratia marcescens 79 harboring plasmid STV29 expressing hasF gene by broth dilution method; format: functional
Serratia marcescens [15] = experiment: Cellular uptake at cetylpyridinium chloride-resistant Serratia marcescens 01 at 50 ug/ml after 60 mins by spectrofluorometry; format: ADME, organism-based; details: in vivo, 1 h
Serratia marcescens [16] = experiment: Cellular uptake at Serratia marcescens ATCC 13880 at 50 ug/ml after 60 mins by spectrofluorometry in presence of […] proteon conductor CCCP; format: ADME, organism-based; details: in vivo, 1 h
Serratia marcescens [17] = experiment: Cellular uptake at Serratia marcescens ATCC 13880 at 50 ug/ml after 60 mins by spectrofluorometry; format: ADME, organism-based; details: in vivo, 1 h
Serratia marcescens [18] = experiment: Cellular uptake at cetylpyridinium chloride-resistant Serratia marcescens 01 at 50 ug/ml after 60 mins by spectrofluorometry in presence of […] proteon conductor CCCP; format: ADME, organism-based; details: in vivo, 1 h
Serratia marcescens [19] = details: ATCC 13880
Description: as §1

Serratia marcescens [20] = details: 79
Serratia marcescens [21] = details: 01
Serratia marcescens [22] = details: 71

| Compound | MIC (Serratia marcescens [1]) [mg/L] | MIC (Serratia marcescens [2]) [mg/L] | MIC (Serratia marcescens [3]) [mg/L] | MIC (Serratia marcescens [4]) [mg/L] | MIC (Serratia marcescens [5]) [mg/L] | MIC (Serratia marcescens [6]) [mg/L] | MIC (Serratia marcescens [7]) [mg/L] | MIC (Serratia marcescens [8]) [mg/L] | MIC (Serratia marcescens [9]) [mg/L] | MIC (Serratia marcescens [10]) [mg/L] | MIC (Serratia marcescens [11]) [mg/L] | MIC (Serratia marcescens [12]) [mg/L] | MIC (Serratia marcescens [13]) [mg/L] | MIC (Serratia marcescens [14]) [mg/L] | further results |
| --- | --- | --- | --- | --- | --- | --- | --- | --- | --- | --- | --- | --- | --- | --- | --- |
| N=C(NCCCCCCNC(=N)NC(=N)Nc1ccc(Cl)cc1)NC(=N)Nc1ccc(Cl)cc1.O=C(O)[C@H](O)[C@@H](O)[C@H](O)[C@H](O)CO | 3.13 | 3.13 | 25 | 100 |  |  |  |  |  |  |  |  |  |  |  |
| CCCCCCCCCCCC[n+]1ccccc1.[I-] | 12.5 | 6.25 | 100 | 100 |  |  |  |  |  |  |  |  |  |  |  |
| CC1(C)S[C@@H]2[C@H](NC(=O)[C@H](N)c3ccccc3)C(=O)N2[C@H]1C(=O)O [AMPICILLIN] | 6.25 (≈ 17.9 µM) | 6.25 (≈ 17.9 µM) | 100 (≈ 286 µM) | 6.25 (≈ 17.9 µM) |  |  |  |  |  |  |  |  |  |  |  |
| CC1(C)S[C@@H]2[C@H](NC(=O)C(C(=O)O)c3ccccc3)C(=O)N2[C@H]1C(=O)O (stereo not given in full) [CARBENICILLIN] | 3.13 (≈ 8.27 µM) | 3.13 (≈ 8.27 µM) | 6.25 (≈ 16.5 µM) | 3.13 (≈ 8.27 µM) | 3.13 (≈ 8.27 µM) | 6.25 (≈ 16.5 µM) | 3.13 (≈ 8.27 µM) | 3.13 (≈ 8.27 µM) | 3.13 (≈ 8.27 µM) | 3.13 (≈ 8.27 µM) | 6.25 (≈ 16.5 µM) | 6.25 (≈ 16.5 µM) | 3.13 (≈ 8.27 µM) | 3.13 (≈ 8.27 µM) |  |
| O=C(N[C@H](CO)[C@H](O)c1ccc([N+](=O)[O-])cc1)C(Cl)Cl [CHLORAMPHENICOL] | 3.13 (≈ 9.69 µM) | 3.13 (≈ 9.69 µM) | 12.5 (≈ 38.7 µM) | 100 (≈ 309 µM) | > 400 | > 400 | 25 (≈ 77.4 µM) | > 400 | > 400 | > 400 | 12.5 (≈ 38.7 µM) | > 400 | > 400 | > 400 |  |
| CCn1cc(C(=O)O)c(=O)c2cc(F)c(N3CCNCC3)nc21 [ENOXACIN] | 0.1 (≈ 0.312 µM) | 0.1 (≈ 0.312 µM) | 0.2 (≈ 0.624 µM) | 3.13 (≈ 9.77 µM) |  |  |  |  |  |  |  |  |  |  |  |
| NC[C@H]1O[C@H](O[C@H]2[C@H](O)[C@@H](O[C@H]3O[C@H](CO)[C@@H](O)[C@H](N)[C@H]3O)[C@H](N)C[C@@H]2N)[C@H](O)[C@@H](O)[C@@H]1O [KANAMYCIN] | > 400 | > 400 | 1.56 (≈ 3.22 µM) | 1.56 (≈ 3.22 µM) | 1.56 (≈ 3.22 µM) | 1.56 (≈ 3.22 µM) | 1.56 (≈ 3.22 µM) | 1.56 (≈ 3.22 µM) |  |  | 1.56 (≈ 3.22 µM) | 1.56 (≈ 3.22 µM) |  |  |  |
| CCn1cc(C(=O)O)c(=O)c2cc(F)c(N3CCNC(C)C3)c(F)c21 (stereo not given) [LOMEFLOXACIN] | 0.05 (≈ 0.142 µM) | 0.05 (≈ 0.142 µM) | 0.2 (≈ 0.569 µM) | 1.56 (≈ 4.44 µM) | 1.56 (≈ 4.44 µM) | 0.2 (≈ 0.569 µM) | 0.78 (≈ 2.22 µM) | 1.56 (≈ 4.44 µM) | 0.05 (≈ 0.142 µM) | 1.56 (≈ 4.44 µM) | 0.2 (≈ 0.569 µM) | 0.2 (≈ 0.569 µM) | 0.05 (≈ 0.142 µM) | 1.56 (≈ 4.44 µM) |  |
| CCn1cc(C(=O)O)c(=O)c2ccc(C)nc21 [NALIDIXIC ACID] | 12.5 (≈ 53.8 µM) | 12.5 (≈ 53.8 µM) | 12.5 (≈ 53.8 µM) | 12.5 (≈ 53.8 µM) |  |  |  |  |  |  |  |  |  |  |  |
| CCn1cc(C(=O)O)c(=O)c2cc(F)c(N3CCNCC3)cc21 [NORFLOXACIN] | 0.05 (≈ 0.157 µM) | 0.05 (≈ 0.157 µM) | 0.2 (≈ 0.626 µM) | 3.13 (≈ 9.8 µM) | 3.13 (≈ 9.8 µM) | 0.2 (≈ 0.626 µM) | 0.78 (≈ 2.44 µM) | 3.13 (≈ 9.8 µM) | 0.05 (≈ 0.157 µM) | 3.13 (≈ 9.8 µM) | 0.2 (≈ 0.626 µM) | 0.2 (≈ 0.626 µM) | 0.05 (≈ 0.157 µM) | 3.13 (≈ 9.8 µM) | Drug uptake (Serratia marcescens [15]): 10 a.u.; Drug uptake (Serratia marcescens [16]): 250 a.u.; Drug uptake (Serratia marcescens [17]): 60 a.u.; Drug uptake (Serratia marcescens [18]): 250 a.u. |
| CC1COc2c(N3CCN(C)CC3)c(F)cc3c(=O)c(C(=O)O)cn1c23 (stereo not given) [OFLOXACIN] | 0.05 (≈ 0.138 µM) | 0.05 (≈ 0.138 µM) | 0.1 (≈ 0.277 µM) | 3.13 (≈ 8.66 µM) |  |  |  |  |  |  |  |  |  |  |  |
| CCn1cc(C(=O)O)c(=O)c2cnc(N3CCNCC3)nc21 [PIPEMIDIC ACID] | 0.78 (≈ 2.57 µM) | 0.78 (≈ 2.57 µM) | 3.13 (≈ 10.3 µM) | 25 (≈ 82.4 µM) | 25 (≈ 82.4 µM) | 3.13 (≈ 10.3 µM) | 6.25 (≈ 20.6 µM) | 25 (≈ 82.4 µM) | 0.78 (≈ 2.57 µM) | 12.5 (≈ 41.2 µM) | 3.13 (≈ 10.3 µM) | 3.13 (≈ 10.3 µM) | 0.78 (≈ 2.57 µM) | 12.5 (≈ 41.2 µM) |  |
| CN[C@@H]1[C@H](O[C@H]2[C@H](O[C@H]3[C@H](O)[C@@H](O)[C@H](N=C(N)N)[C@@H](O)[C@@H]3N=C(N)N)O[C@@H](C)[C@]2(O)C=O)O[C@@H](CO)[C@H](O)[C@H]1O [STREPTOMYCIN] | 1.56 (≈ 2.68 µM) | 1.56 (≈ 2.68 µM) | 3.13 (≈ 5.38 µM) | 3.13 (≈ 5.38 µM) |  |  |  |  |  |  |  |  |  |  |  |
| CN(C)[C@@H]1C(O)=C(C(N)=O)C(=O)[C@@]2(O)C(O)=C3C(=O)c4c(O)cccc4[C@@](C)(O)[C@H]3C[C@@H]12 [TETRACYCLINE] | 3.13 (≈ 7.04 µM) | 3.13 (≈ 7.04 µM) | 50 (≈ 113 µM) | 100 (≈ 225 µM) | 100 (≈ 225 µM) | 50 (≈ 113 µM) | 100 (≈ 225 µM) | 100 (≈ 225 µM) | 3.13 (≈ 7.04 µM) | 50 (≈ 113 µM) | 50 (≈ 113 µM) | 50 (≈ 113 µM) | 3.13 (≈ 7.04 µM) | 50 (≈ 113 µM) |  |
| GENTAMICIN |  |  |  |  |  |  |  |  |  |  |  |  |  |  | MIC (Serratia marcescens [19]): 1.56 mg/L; MIC (Serratia marcescens [20]): 1.56 mg/L; MIC (Serratia marcescens [21]): 1.56 mg/L; MIC (Serratia marcescens [22]): 1.56 mg/L |

From ChEMBL document CHEMBL1649274, “Mutational upregulation of a resistance-nodulation-cell division-type multidrug efflux pump, SdeAB, upon exposure to a biocide, cetylpyridinium chloride, and antibiotic resistance in Serratia marcescens” (Antimicrob Agents Chemother, 2009)
